Measured values reported in the NIST ThermoML archive (doi:10.1021/acs.jced.7b00581).

Settings: 100 kPa, Liquid; for speed of sound: Single path-length method; for mass density: Vibrating tube method

CCCO [propan-1-ol]
Settings | mass density [kg/m3] | speed of sound [m/s]
288.15 K | 807.834 | 1242.3
298.15 K | 799.597 | 1205.3
308.15 K | 791.399 | 1170.4
318.15 K | 783.121 | 1137.3
